Counter-ions that a name gives are not always drawn.
Assays:
Assay type in all cases: in vivo
[1] = tested on: rice cv. Cheniere; experiment: Pouch assay with PESA salt seed treatment; root length; conditions: for Root Length: untreated 9.8
Method: Procedure for Treating Samples of Seed in the Laboratory
(§1) Seed was sieved with a screen of mesh size appropriate to remove broken seeds and small trash. Cracked or otherwise damaged seeds were removed. The seed was well mixed, and 50 g samples were weighed into small plastic trays. Seed treatment slurries were made by adding measured amounts of PESA or its salts and other AIs to sufficient water to bring them up to a standard volume, typically 2 ml. A fungicide (Maxim XL; Syngenta Agricultural Products, Greensboro, N.C.), a polymeric binder (CF-Clear; Becker-Underwood, Ames, Iowa), and a colorant (Color Coat Red; Becker-Underwood, Ames, Iowa) were also included in the slurry at label rates. A small aliquot of this slurry was applied to the seed using the Hege 11 coater (Wintersteiger, Salt Lake City, Utah) with a six-inch bowl at a slurry rate of 30 ounces per 100 lbs of seed. The slurry was deposited drop-wise on the spinning disk atomizer using a syringe.
After treatment, each seed sample was placed in plastic trays and dried at a room temperature for 20 to 60 minutes. The samples were then placed in small plastic bags. Samples were spot-checked using a water activity meter to make sure the water activity is below 0.7.
(§2) Seeds were placed in germination pouches consisting of germination paper hydrated with sterile water that was an insert in a gas-permeable 16×14 cm plastic pouch (CYG Pouch; Mega International, St. Paul, Minn.). In these examples, in pouch solution evaluation, PESA sodium salt or other active ingredients were added to the sterile water in the pouch. The pouches were arranged in a completely randomized block design in growth racks and placed in 19-liter polycarbonate food storage containers (Rubbermaid Commercial Products, Winchester, Va.). The sealed containers were held in an upright growth cabinet maintained at 25 C with a 12 hour light: 12 hour dark photoperiod. After 6 days, the containers were removed from the growth cabinet, and the lengths of the roots and shoot were measured.
Rice cv. Chemere was treated with PESA sodium salt prior to growing in the pouch. The treated seeds were then grown in the pouch in a dose-dependent series of trifluralin concentrations (Table 2). […] This confirms that seed treatment with the PESA salt protects or safens rice from the negative effects of trifluralin herbicide on root growth.

[2] = tested on: rice cv. Cheniere; experiment: Emergence of seed-treated rice seeded onto soil previously treated with herbicide; conditions: for Percent Emergence at 9 days after planting: untreated 90
Excerpt: as §1, with “Seed treatment slurries were made by adding measured amounts of PESA or its salts and other AIs to sufficient water to bring them up to a standard volume, typically 2 ml.” left out
Rice cv. […] It was then seeded onto soil which was previously sprayed with the pendimethalin herbicide Prowl H2O® (BASF Agricultural Products, Research Triangle Park, N.C.).
After seed treatment, rice was seeded into soil previously treated with the dithiopyr herbicide Dimension®.
Rice seed treated with PESA was tested for its ability to protect rice from the herbicide Roundup WeatherMax® (glyphosate). After seed treatment, rice was seeded into soil previously treated with the Roundup WeatherMax®.

[3] = tested on: rice cv. Nipponbare; experiment: Hydroponic assay; total root length and shoot length; conditions: for Shoot Length / Total Root Length: 40 ppm PESA salt
Method: Where hydroponically-grown rice was used in studies, the seeds were pre-incubated in water at 30 C for 2 days to stimulate germination. Three seeds were placed on a float and cultivated hydroponically in a test tube (25 mm×200 mm), which contained 50 ml of Kimura B nutrient solution at ⅛th strength supplemented with herbicides and PESA sodium salt. The exposure of the roots to the light was prevented by wrapping the tubes with aluminum foil. The rice seedlings were incubated in a growth cabinet at 25 C under continuous light for 14 days, and the total root length and shoot length were measured. Total root length (cm) was the root length/plant determined following scanning with WinRhizo software (Regent Instruments INC, Toronto, Canada).

[4] = tested on: cotton; experiment: Pouch assay; root and shoot length of cotton; conditions: for Shoot Length / Root Length: 30 ppm PESA salt; for Shoot Length: untreated 4.7; for Root Length: untreated 7.7
Method: as §2

[5] = 40 ppm PESA salt with 0.1 ppm dicamba
[6] = 40 ppm PESA salt with 0.1 ppm imazosulfuron
[7] = 40 ppm PESA salt with 1 ppm flumioxazin

Compound: O=C(O)CCC(=O)NCCc1ccccc1 [PESA salt, N-(2-phenylethyl)succinamic acid]
- protection of root growth by seed treatment ([1]; PESA salt seed treatment, trifluralin 50 ppm): significant protection against intermediate rates of trifluralin (50 ppm)
- Root Length ([1]; seed treatment 10 g PESA salt/100 lbs of seed, 0 ppm trifluralin): 10.7 cm
- Root Length ([1]; seed treatment 10 g PESA salt/100 lbs of seed, 50 ppm trifluralin): 4.6 cm
- Root Length ([1]; seed treatment 10 g PESA salt/100 lbs of seed, 100 ppm trifluralin): 0.3 cm
- Root Length ([1]; seed treatment 25 g PESA salt/100 lbs of seed, 0 ppm trifluralin): 10.1 cm
- Root Length ([1]; seed treatment 25 g PESA salt/100 lbs of seed, 50 ppm trifluralin): 5.2 cm
- Root Length ([1]; seed treatment 25 g PESA salt/100 lbs of seed, 100 ppm trifluralin): 0.3 cm
- Root Length ([1]; seed treatment 50 g PESA salt/100 lbs of seed, 0 ppm trifluralin): 10.3 cm
- Root Length ([1]; seed treatment 50 g PESA salt/100 lbs of seed, 50 ppm trifluralin): 6.0 cm
- Root Length ([1]; seed treatment 50 g PESA salt/100 lbs of seed, 100 ppm trifluralin): 0.3 cm
- Percent Emergence at 12 days after planting ([2]; Dimension (dithiopyr) 0.25 pints/acre, seed treatment none (Control), 1 g GA3 and/or 50 g PESA salt per 100 lbs of seed, untreated 72.1): 61.0%
- Percent Emergence at 12 days after planting ([2]; Dimension (dithiopyr) 0.5 pints/acre, seed treatment none (Control), 1 g GA3 and/or 50 g PESA salt per 100 lbs of seed, untreated 72.1): 13.9%
- protection of emergence from glyphosate ([2]; PESA seed treatment, soil treated with Roundup WeatherMax, at 90 μg/cm^2): could protect the rice seedlings from glyphosate
- Percent Emergence at 12 days after planting ([2]; Prowl (pendimethalin) 0.25 pints/acre, seed treatment none (Control), 1 g GA3 and/or 50 g PESA salt per 100 lbs of seed, untreated 84.5): 79.0%
- Percent Emergence at 12 days after planting ([2]; Prowl (pendimethalin) 0.5 pints/acre, seed treatment none (Control), 1 g GA3 and/or 50 g PESA salt per 100 lbs of seed, untreated 84.5): 80.7%
- Percent Emergence at 12 days after planting ([2]; Prowl (pendimethalin) 2 pints/acre, seed treatment none (Control), 1 g GA3 and/or 50 g PESA salt per 100 lbs of seed, untreated 84.5): 61.0%
- Percent Emergence at 12 days after planting ([2]; no Dimension (Control), seed treatment 1 g GA3 and/or 50 g PESA salt per 100 lbs of seed, untreated 72.1): 77.2%
- Percent Emergence at 12 days after planting ([2]; no Prowl (Control), seed treatment 1 g GA3 and/or 50 g PESA salt per 100 lbs of seed, untreated 84.5): 86.1%
- Percent Emergence at 9 days after planting ([2]; seed treatment 25 g PESA salt per 100 kg of seed, glyphosate 0 μg/cm2): 80%
- Percent Emergence at 9 days after planting ([2]; seed treatment 25 g PESA salt per 100 kg of seed, glyphosate 23 μg/cm2): 84%
- Percent Emergence at 9 days after planting ([2]; seed treatment 25 g PESA salt per 100 kg of seed, glyphosate 90 μg/cm2): 28%
- Percent Emergence at 9 days after planting ([2]; seed treatment 50 g PESA salt per 100 kg of seed, glyphosate 0 μg/cm2): 92%
- Percent Emergence at 9 days after planting ([2]; seed treatment 50 g PESA salt per 100 kg of seed, glyphosate 23 μg/cm2): 78%
- Percent Emergence at 9 days after planting ([2]; seed treatment 50 g PESA salt per 100 kg of seed, glyphosate 90 μg/cm2): 38%
- protection of emergence from pendimethalin ([2]; seed treatment, soil sprayed with Prowl H2O, particularly at 2 pints/acre): could protect the rice seedlings from pendimethalin
- protection of emergence from dithiopyr ([2]; seed treatment, soil treated with Dimension, particularly at 0.25 and 0.5 pints/acre): could protect the rice seedlings from dithiopyr
- protection of roots from herbicide [3, 5]: largely protected the roots from the negative effects of dicamba
- protection of shoots from herbicide [3, 5]: largely protected the shoots from the negative effects of dicamba
- total root length increased by, as compared with untreated control [3, 5]: 61%
- protection of roots from herbicide [3, 6]: largely protected the roots from the negative effects of imazosulfuron
- total root length increased by, as compared with untreated control [3, 6]: 87%
- protection of roots from herbicide [3, 7]: protected the roots from the negative effects of flumioxazin
- protection of shoots from herbicide [3, 7]: largely protected the shoots from the negative effects of flumioxazin
- protection of shoots from herbicide ([3]; 40 ppm PESA salt with 1 ppm imazosulfuron): largely protected the shoots from the negative effects of the herbicide
- protection of roots from herbicide ([3]; 40 ppm PESA salt with 3 ppm clodinafop-propargyl): protected the roots from the negative effects of the herbicide
- Shoot Length ([3]; 0 ppm clodinafop-propargyl, untreated 10.6): 13.3 cm
- Total Root Length ([3]; 0 ppm clodinafop-propargyl, untreated 52.1): 193.9 cm
- Shoot Length ([3]; 0 ppm dicamba, untreated 11.4): 15.1 cm
- Total Root Length ([3]; 0 ppm dicamba, untreated 44.9): 121.9 cm
- Shoot Length ([3]; 0 ppm flumioxazin, untreated 10.6): 13.3 cm
- Total Root Length ([3]; 0 ppm flumioxazin, untreated 52.1): 193.9 cm
- Shoot Length ([3]; 0 ppm imazosulfuron, untreated 11.4): 15.1 cm
- Total Root Length ([3]; 0 ppm imazosulfuron, untreated 44.9): 121.9 cm
- Shoot Length ([3]; 0.01 ppm dicamba, untreated 11.4): 15.1 cm
- Total Root Length ([3]; 0.01 ppm dicamba, untreated 44.9): 155.4 cm
- Shoot Length ([3]; 0.01 ppm imazosulfuron, untreated 11.4): 14.5 cm
- Total Root Length ([3]; 0.01 ppm imazosulfuron, untreated 44.9): 169.8 cm
- Shoot Length ([3]; 0.1 ppm dicamba, untreated 11.4): 12.5 cm
- Total Root Length ([3]; 0.1 ppm dicamba, untreated 44.9): 72.5 cm
- Shoot Length ([3]; 0.1 ppm flumioxazin, untreated 10.6): 12.3 cm
- Total Root Length ([3]; 0.1 ppm flumioxazin, untreated 52.1): 132.6 cm
- Shoot Length ([3]; 0.1 ppm imazosulfuron, untreated 11.4): 13.2 cm
- Total Root Length ([3]; 0.1 ppm imazosulfuron, untreated 44.9): 83.8 cm
- Shoot Length ([3]; 0.3 ppm clodinafop-propargyl, untreated 10.6): 14.3 cm
- Total Root Length ([3]; 0.3 ppm clodinafop-propargyl, untreated 52.1): 202.6 cm
- Shoot Length ([3]; 0.3 ppm flumioxazin, untreated 10.6): 10.3 cm
- Total Root Length ([3]; 0.3 ppm flumioxazin, untreated 52.1): 102.8 cm
- Shoot Length ([3]; 1 ppm clodinafop-propargyl, untreated 10.6): 13.6 cm
- Total Root Length ([3]; 1 ppm clodinafop-propargyl, untreated 52.1): 110.5 cm
- Shoot Length ([3]; 1 ppm dicamba, untreated 11.4): 3.6 cm
- Total Root Length ([3]; 1 ppm dicamba, untreated 44.9): 9.2 cm
- Shoot Length ([3]; 1 ppm flumioxazin, untreated 10.6): 7.5 cm
- Total Root Length ([3]; 1 ppm flumioxazin, untreated 52.1): 53 cm
- Shoot Length ([3]; 1 ppm imazosulfuron, untreated 11.4): 7.9 cm
- Total Root Length ([3]; 1 ppm imazosulfuron, untreated 44.9): 13.8 cm
- Shoot Length ([3]; 3 ppm clodinafop-propargyl, untreated 10.6): 11.8 cm
- Total Root Length ([3]; 3 ppm clodinafop-propargyl, untreated 52.1): 44.3 cm
- Shoot Length ([3]; 3 ppm flumioxazin, untreated 10.6): 6.5 cm
- Total Root Length ([3]; 3 ppm flumioxazin, untreated 52.1): 24.4 cm
- Shoot Length ([4]; 0 ppm chlorsulfuron): 5.2 cm
- Root Length ([4]; 0 ppm chlorsulfuron): 14.0 cm
- Shoot Length ([4]; 1 ppm chlorsulfuron): 2.7 cm
- Root Length ([4]; 1 ppm chlorsulfuron): 2.1 cm
- Shoot Length ([4]; 10 ppm chlorsulfuron): 1.7 cm
- Root Length ([4]; 10 ppm chlorsulfuron): 2.0 cm
- Shoot Length ([4]; 100 ppm chlorsulfuron): 1.7 cm
- Root Length ([4]; 100 ppm chlorsulfuron): 2.0 cm
- protection of root length from herbicide ([4]; PESA salt with chlorsulfuron): unable to overcome the negative effects of chlorsulfuron on root length
